Measured values published in the CheMixHub ionic liquid set.

Test: xn = mol fraction of the nth substance listed
Settings: for viscosity: x1 = 1

CCCCCCCCCCCCOS(=O)(=O)[O-].[Na+] + CCCO + O
298 K, 100 kPa, frequency 0.001 MHz
Settings	electrical conductivity [S/m]
x2 = 0.01543, x1 = 3.435e-05	0.0146
x2 = 0.02615, x3 = 0.9738	0.033
x2 = 0.04737, x3 = 0.9525	0.0508
x2 = 0.07172, x3 = 0.9277	0.102
x2 = 0.07173, x3 = 0.9279	0.0751

298.15 K, 101 kPa
Settings	electrical conductivity [S/m]
x2 = 0, x1 = 3.24e-06	0.001447
x2 = 0, x1 = 8.11e-06	0.003433
x2 = 0, x1 = 1.64e-05	0.006697
x2 = 0, x1 = 2.505e-05	0.01006
x2 = 0, x1 = 2.991e-05	0.0119
x2 = 0, x1 = 3.478e-05	0.01378
x2 = 0, x1 = 3.964e-05	0.01564
x2 = 0, x1 = 5.063e-05	0.01999
x2 = 0, x1 = 6.198e-05	0.02434
x2 = 0, x1 = 7.406e-05	0.02896
x2 = 0, x1 = 8.09e-05	0.03151
x2 = 0, x1 = 8.667e-05	0.03369
x2 = 0, x1 = 9.135e-05	0.03548
x2 = 0, x1 = 9.694e-05	0.03753
x2 = 0, x1 = 0.0001016	0.03931
x2 = 0, x1 = 0.000107	0.04131
x2 = 0, x1 = 0.0001175	0.0452
x2 = 0, x1 = 0.0001223	0.047
x2 = 0, x1 = 0.0001268	0.04874
x2 = 0, x1 = 0.0001315	0.0504
x2 = 0, x1 = 0.0001364	0.05202
x2 = 0, x1 = 0.0001411	0.05353
x2 = 0, x1 = 0.0001454	0.05471
x2 = 0, x1 = 0.0001541	0.05656
x2 = 0, x1 = 0.0001586	0.05737
x2 = 0, x1 = 0.0001631	0.05814
x2 = 0, x1 = 0.0001692	0.05912
x2 = 0, x1 = 0.0001735	0.05977
x2 = 0, x1 = 0.000178	0.06043
x2 = 0, x1 = 0.0001825	0.06112
x2 = 0, x1 = 0.0001892	0.06206
x2 = 0, x1 = 0.0001935	0.06269
x2 = 0, x1 = 0.0002002	0.06378
x2 = 0, x1 = 0.0002048	0.06444
x2 = 0, x1 = 0.0002097	0.06508
x2 = 0, x1 = 0.000214	0.06575
x2 = 0.007626, x1 = 0.0004015	0.09227
x2 = 0.007627, x1 = 0.0002602	0.06737
x2 = 0.007627, x1 = 0.0002829	0.07143
x2 = 0.007627, x1 = 0.0003124	0.07668
x2 = 0.007627, x1 = 0.0003456	0.08254
x2 = 0.007628, x1 = 0.0001267	0.04228
x2 = 0.007628, x1 = 0.000135	0.04399
x2 = 0.007628, x1 = 0.0001447	0.04592
x2 = 0.007628, x1 = 0.0001683	0.05047
x2 = 0.007628, x1 = 0.0001845	0.05346
x2 = 0.007628, x1 = 0.0002013	0.05663
x2 = 0.007628, x1 = 0.0002199	0.06003
x2 = 0.007628, x1 = 0.0002404	0.06381
x2 = 0.007629, x1 = 1.192e-05	0.004556
x2 = 0.007629, x1 = 1.321e-05	0.005113
x2 = 0.007629, x1 = 1.651e-05	0.00628
x2 = 0.007629, x1 = 1.962e-05	0.007449
x2 = 0.007629, x1 = 2.274e-05	0.00856
x2 = 0.007629, x1 = 2.623e-05	0.009738
x2 = 0.007629, x1 = 2.934e-05	0.01087
x2 = 0.007629, x1 = 3.228e-05	0.01189
x2 = 0.007629, x1 = 3.595e-05	0.01317
x2 = 0.007629, x1 = 3.925e-05	0.01435
x2 = 0.007629, x1 = 4.255e-05	0.01551
x2 = 0.007629, x1 = 4.823e-05	0.0178
x2 = 0.007629, x1 = 5.135e-05	0.0189
x2 = 0.007629, x1 = 5.465e-05	0.02006
x2 = 0.007629, x1 = 5.795e-05	0.02124
x2 = 0.007629, x1 = 6.474e-05	0.02366
x2 = 0.007629, x1 = 6.804e-05	0.02483
x2 = 0.007629, x1 = 7.152e-05	0.02603
x2 = 0.007629, x1 = 7.464e-05	0.02715
x2 = 0.007629, x1 = 7.776e-05	0.02824
x2 = 0.007629, x1 = 8.088e-05	0.02934
x2 = 0.007629, x1 = 8.418e-05	0.03045
x2 = 0.007629, x1 = 8.95e-05	0.03235
x2 = 0.007629, x1 = 9.426e-05	0.03397
x2 = 0.007629, x1 = 9.995e-05	0.03577
x2 = 0.007629, x1 = 0.0001049	0.03716
x2 = 0.007629, x1 = 0.0001146	0.03955
x2 = 0.01553, x1 = 4.687e-05	0.01553
x2 = 0.01553, x1 = 5.322e-05	0.01769
x2 = 0.01553, x1 = 7.282e-05	0.0238
x2 = 0.01553, x1 = 7.842e-05	0.02558
x2 = 0.01553, x1 = 8.757e-05	0.02822
x2 = 0.01553, x1 = 9.765e-05	0.03081
x2 = 0.01553, x1 = 0.0001083	0.03351
x2 = 0.01553, x1 = 0.0001201	0.03619
x2 = 0.01553, x1 = 0.0001298	0.03847
x2 = 0.01553, x1 = 0.0001533	0.04391
x2 = 0.01553, x1 = 0.0001677	0.04711
x2 = 0.01553, x1 = 0.0001815	0.05015
x2 = 0.01553, x1 = 0.0001979	0.05361
x2 = 0.01553, x1 = 0.0002319	0.06058
x2 = 0.01553, x1 = 0.0002511	0.06442
x2 = 0.01553, x1 = 0.0002703	0.06822
x2 = 0.01553, x1 = 0.0002877	0.0716
x2 = 0.01553, x1 = 0.0003082	0.07551
x2 = 0.01554, x1 = 5.98e-06	0.002351
x2 = 0.01554, x1 = 1.176e-05	0.004274
x2 = 0.01554, x1 = 1.811e-05	0.006392
x2 = 0.01554, x1 = 2.428e-05	0.008288
x2 = 0.01554, x1 = 2.894e-05	0.009768
x2 = 0.01554, x1 = 3.492e-05	0.01173

c1ccsc1 + CCCC[n+]1ccn(C)c1.N#C[S-]
100 kPa
Settings	viscosity [mPa·s]
298.15 K	0.655
308.15 K	0.585
318.15 K	0.525
328.15 K	0.47
